Data set [1] concerns PBMCs. The data set can be described thus: PBMC proliferation and viability (MTT assay). How it is done: (§1) Cultures of peripheral blood mononuclear cells (PBMCs) and monocyte-derived macrophages (MDMs) were performed on normal donors as described (Poli, et al. 1993, Perno, et al., 1993). PBMCs were maintained in the presence of 100 units/ml rhIL-2 (Roche Molecular Biochemicals). Cell viability was determined by Trypan blue staining or by the MTT assay (Roche Molecular Biochemicals). RAPA was purchased from Calbiochem. The CCR5 antagonist TAK-779 was obtained from the National Institutes of Health AIDS Research and Reference Reagent Program (Rockville, Md.). CCR5 surface expression was measured on PBMCs cultured in the presence of IL-2 for 7-10 days. Staining was done as described (Lane, et al. 1999), but using CCR5 mAb 182 (R & D Systems). Background staining was determined by adding an isotype-matched control (IgG2b, R&D Systems) instead of the anti-CCR5 mAb. Data were acquired by using a FACS Calibur flow cytometer (BD Biosciences) and analyzed by using FLOWJO (Tree Star, San Carlos, Calif.).
Donor PBMCs were cultured in the presence of IL-2 and RAPA (10-fold serial dilutions, from 10^4 to 0.01 nM).
On the technique in general: Formazan colour is commonly taken as a measure of viable cells.

Data set [2] deals with PBMCs. The data set can be described thus: β-chemokine levels (ELISA) in supernatants of IL-2 PBMC cultures with RAPA. It is filed as cell-based, human. How it is done: RAPA was purchased from Calbiochem.
Levels of the β-chemokines MIP-1α, MIP-1β and RANTES were measured in culture supernatants by using ELISA kits (R & D Systems).
We next measured levels of the CCR5 ligands MIP-1α, MIP-1β, and RANTES in supernatants of RAPA-treated PBMC cultures. PBMCs from four donors were cultured in the presence of IL-2 and RAPA for 10 days. […] Among the different donors, RAPA-treated cultures contained 6-39-fold higher levels of MIP-1α than untreated cultures. Similarly, MIP-1β levels were increased 17-47-fold in the presence of RAPA as compared with untreated controls. […] Chemokine results obtained in two of the donors, showing disparity of RANTES levels in the presence of RAPA, are depicted in FIG. 8A.
The effect of RAPA on MIP-1β protein levels provided information regarding the mechanism by which RAPA increases β-chemokine levels. To this end, stimulated PBMCs from two normal donors and from a CCR5-null donor were cultured in the presence of RAPA as in previous experiments. MIP-1β levels in supernatants were evaluated on day 10. Representative results obtained in one of the normal donors are shown next to the results obtained on the CCR5-null donor (FIG. 8B).
PBMCs from a healthy donor were cultured in the presence of IL-2 and Rapamycin. On day 7, chemokines content in the supernatant was measured by ELISA and cell viability was determined by the MTT assay.

Data set [3] has as its system HIV-1 ADA. The data set can be described thus: Antiviral activity of RAPA in PBMCs (p24). Particulars: Human immunodeficiency virus 1, PBMC. In kind it is cell-based. How it is done: (§2) The following viruses were used in infection experiments, including HIV-1 IIIb, HIV-1 ADA, HIV-1 BaL, HIV-1 JRFL, HIV-1 JRCSF, and HIV-1 SF162. HIV-1 IIIb is a T cell line-adapted lab strain that uses CXCR4 for entry into cells, whereas the rest are isolates that use CCR5.
(§3) For infection of PBMCs, fresh donor PBMCs were cultured for 7 days in medium containing IL-2. On day 7, cells were exposed to the virus for 3 h. Nonadsorbed virus was removed by washing cells with PBS three times. Infected cells were cultured in IL-2 medium. Infection of MDMs was carried out as described before (Pemo, et al. 1993). Unless otherwise indicated, PBMCs were infected by using a moi of 0.001, and monocyte-derived macrophages (MDMs) were infected by using a moi of 0.002. Virus growth was monitored in culture supernatants by measuring p24 antigen levels by ELISA (NEN) or by measuring viral RT activity in an RT assay (Willey, et al., 1988).
(§4) The antiviral activity of RAPA was assayed in PBMCs that had been cultured in the presence of RAPA for 7 days before infection. Cells were infected with the X4 HIV-1 IIIb and the R5 HIV-1 ADA strains. Infected cells were cultured in the presence of RAPA (same concentration as during pretreatment) for 7 additional days, during which time virus replication and cell viability were measured. […]

For another data set, the system named is HIV-1 IIIb. The data set can be described thus: Antiviral activity of RAPA in PBMCs (p24). In kind it is cell-based. The following applies: Human immunodeficiency virus 1, IIIB, PBMC. Here is the method:
as §2, §3, §4

A further data set concerns five R5 strains of HIV-1. Kind of data set: Antiviral activity of low concentrations of RAPA in PBMCs, panel of R5 strains. In kind it is cell-based. Particulars: Human immunodeficiency virus 1, PBMC. How it is done: as §2, §3
RAPA at 0.01 nM inhibited R5 HIV-1 by 10-64% depending on the strains, whereas 0.1 nM RAPA inhibited virus replication by 15-85%. At 1 nM RAPA, all R5 viruses were inhibited by >90%.

Data set [4] has as its system HIV-1 ADA. Kind of data set: Antiviral activity of RAPA in monocyte-derived macrophages (RT assay). In kind it is cell-based. How it is done: as §1, §3
(§5) On day 5, cells were infected with HIV-1 ADA. Infected cells were cultured in the presence of RAPA for an additional 14 days. Virus production was measured on the culture supernatants on days 7, 10, and 14 after infection.
In the above-described experiment, monocytes had been pretreated with RAPA during the 5-day differentiation period. To control for the possible interference of RAPA with the process of monocyte differentiation, a new infection experiment in which RAPA was not present during the 5-day monocyte differentiation period was designed. To this end, fresh monocytes were cultured for 5 days in the absence of RAPA. On day 5, cells were infected with HIV-1 ADA and then exposed to RAPA.

A further data set concerns HIV-1 SF 162. Kind of data set: Antiviral activity of RAPA in monocyte-derived macrophages. In kind it is cell-based. Particulars: Human immunodeficiency virus 1, Macrophage; 0.01 nM RAPA; data not shown.
Another data set concerns MDMs. The data set can be described thus: Cell viability of MDMs (MTT assay). It is filed as cell-based, human. Particulars: end of experiment (day 14). Here is the method:
as §1, §5

A short description of data set [5]: Tolerability of Rapamycin in healthy volunteers. In kind it is in vivo, human. Particulars: 5 healthy volunteers, 2 mg/day after 6 mg loading dose, 14 days. Here is the method: HIV-1 has been shown in most instances to use the chemokine receptor, CCR5, as a co-receptor for entry into macrophages and CD4 lymphocytes. The natural ligands for the CCR5 co-receptor are proteins called β-Chemokines. […] To assess the activity of β-Chemokine production levels and its effects on CCR5 receptors in vivo an open-labeled, non-randomized observational trial was performed in which 5 healthy volunteers were given 2 mg/day of Rapamycin, following a 6 mg loading dose, for 14 days. Peripheral blood for determining β-Chemokines was obtained at the screening visit, days 7 and 14 of the Rapamycin dosing, and at day 28 (which was two weeks following the last dose of Rapamycin). All 5 subjects completed the study and Rapamycin was well-tolerated.

The conditions of data set [6]: renal transplant recipients, cited from earlier work.
Where [7] appears, read: IL-2 and RAPA for 10 days, four donors.

Where two headings read alike, the source gives them in different places.

For the compound `CO[C@H]1C[C@@H]2CC[C@@H](C)[C@@](O)(O2)C(=O)C(=O)N2CCCC[C@H]2C(=O)O[C@H]([C@H](C)C[C@@H]2CC[C@@H](O)[C@H](OC)C2)CC(=O)[C@H](C)/C=C(\C)[C@@H](O)[C@@H](OC)C(=O)[C@H](C)C[C@H](C)/C=C/C=C/C=C/1C` [RAPA, rapamycin], the “drug concentrations at which reduced proliferation was detected” value in the data set on PBMCs [1] (IL-2, MTT assay on day 7) is reported as no less than 1 nM. For the same compound, in the data set with PBMCs [1] (data not shown), the “drug concentrations at which drug toxicity was observed” value is recorded as “above 1 nM”. Further, in the data set with PBMCs [2] (CCR5-null donor, day 10), the MIP-1β levels increase was 1.2 fold. The “MIP-1α levels, RAPA-treated versus untreated cultures” value in the data set with PBMCs [2] (setting [7]) was 6-39 fold. In the data set with PBMCs [2] (setting [7]), the “MIP-1β levels increase compared with untreated controls” value is given as 17-47 fold. Besides, in the data set with PBMCs [2] (normal donor, day 10), the “MIP-1β protein increase compared with RAPA-untreated control” value is recorded as 9.3 fold. Further, the inhibition at 0.01 µM in the data set with HIV-1 ADA [3] (10 nM RAPA, average of seven experiments (range of 88-97%)) was 91%; with HIV-1 IIIb (10 nM RAPA (range of 5-25%)), 13.5%. The inhibition at 0.1 µM in the data set with HIV-1 ADA [3] (100 nM RAPA, seven experiments (range of 92-99%)) came out at 94%; in the data set on HIV-1 IIIb (100 nM RAPA (range 29-60%)) it was 32%. Further, the inhibition at 10 pM with five R5 strains of HIV-1 (read-out: inhibition of R5 HIV-1) is 10 to 64%; in the data set on HIV-1 ADA [4] (Human immunodeficiency virus 1, Macrophage, 0.01 nM RAPA, data not shown) it was 64%; in the data set on HIV-1 SF 162, 45%. The inhibition at 0.001 µM in the data set with five R5 strains of HIV-1 (read-out: inhibition of all R5 viruses) is greater than 90%; in the data set on HIV-1 ADA [4] (Human immunodeficiency virus 1, Macrophage, 336 h, 1 nM RAPA added after infection, no RAPA during differentiation, day 14, two donors, read-out: inhibition of virus replication) it was roughly 60%. The inhibition at 0.0001 µM in the data set on five R5 strains of HIV-1 (read-out: inhibition of virus replication (R5 HIV-1)) lay in the range of 15 to 85%. Besides, in the data set on HIV-1 ADA [4] (1 nM RAPA added after infection, no RAPA during differentiation, day 14, two donors), the “inhibition of virus replication” value is roughly 80%. The “inhibition of virus production” value in the data set on HIV-1 ADA [4] (RAPA 0.1-100 nM, day 14, monocytes pretreated 5 days) is on record as 70-95%. The “RAPA concentrations at which cell viability was reduced” value with MDMs is on record as greater than 10 nM. Further, in [5], the tolerability result is “well-tolerated”. Besides, the therapeutic through levels in [6] (daily 2 mg) was 9.3 ± 4.4 nM; in data set [6] (daily 5 mg) it was 18.9 ± 8 nM.

Broadly, the inhibition is the change of the read-out against control, counted positive when it falls.

Source of the values: patent US20060099170A1, “Compositions for inducing increased levels of beta-chemokines and methods of use therefor” (priority 2002, published 2006).
